Reference: patent publication US20250162989A1, “USP30 INHIBITORS AND USES THEREOF” (Vincere Biosciences, Inc., priority 2021, published 2025)
Like-named read-outs stand apart in the source and are kept apart here.

Key:
USP30 = USP30 (Homo sapiens (Human), UniProt Q70CQ3); experiment: Dundee MALDI-TOF mass spectrometry assay (K48-linked diubiquitin cleavage); assay type: biochemical; conditions: USP30 25 ng/μl, K48-linked diubiquitin 5.6 μM
Description: USP30 was diluted in a buffer containing 40 mM Tris, 0.01% BSA, 1 mM DTT and K48 in 40 mM Tris, 0.01% BSA.
The compounds were pre-incubated with the USP30 for 5 mins at room temp before the K48 dimer addition. The assay mixture was then incubated for 45 mins at room temp. The assay was stopped by the addition of TFA to a final concentration of 2% (v/v).
Acidified samples of the DUB assays were mixed with 0.5 mM 15N-ubiquitin and then with one part of 2% (v/v) TFA and one part of 2.5 DHAP matrix solution (7.6 mg of 2.5 DHAP in […] ethanol and […] of an aqueous 12 mg ml 1 diammonium hydrogen citrate).

[1] = target: recombinant USP30 (amino acids 57-517 of the human sequence) (Homo sapiens (Human), UniProt Q70CQ3); experiment: In vitro USP30 biochemical assay (Ubiquitin-Rhodamine substrate); conditions: fluorescence
recombinant USP30 (amino acids 57-517 of the human sequence), sequence (Q70CQ3 57-517): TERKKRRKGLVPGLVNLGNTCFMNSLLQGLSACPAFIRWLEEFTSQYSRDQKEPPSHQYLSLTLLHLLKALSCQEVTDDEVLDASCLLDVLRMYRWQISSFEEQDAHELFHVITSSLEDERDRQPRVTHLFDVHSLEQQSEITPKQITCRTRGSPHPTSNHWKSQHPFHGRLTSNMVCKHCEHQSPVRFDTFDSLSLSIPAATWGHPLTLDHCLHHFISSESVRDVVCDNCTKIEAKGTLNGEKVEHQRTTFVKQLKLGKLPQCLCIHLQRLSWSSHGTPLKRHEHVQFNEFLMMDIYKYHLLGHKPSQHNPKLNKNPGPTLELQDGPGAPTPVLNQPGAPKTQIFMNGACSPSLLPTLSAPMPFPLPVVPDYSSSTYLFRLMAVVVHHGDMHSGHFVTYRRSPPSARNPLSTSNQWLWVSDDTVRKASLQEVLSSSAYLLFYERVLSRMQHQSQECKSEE
Description: In vitro biochemical assay to establish the potency of compounds for USP30 inhibition: a 384-well plate assay using a fluorophore tagged substrate of USP30 was used for in vitro screening of compounds. Each compound was tested at
10 different concentrations (0.5 to 10,000 nM) in duplicate wells. […] Data were analyzed using Graph Pad Prism software with a four-parameter (floating slope) fit to log concentration data to determine IC50s.

[2] = 1.5 nM recombinant USP30, 25 nM Ubiquitin-Rhodamine
[3] = […] recombinant USP30, 25 nM Ubiquitin-Rhodamine

USP30, sequence (Q70CQ3 whole entry): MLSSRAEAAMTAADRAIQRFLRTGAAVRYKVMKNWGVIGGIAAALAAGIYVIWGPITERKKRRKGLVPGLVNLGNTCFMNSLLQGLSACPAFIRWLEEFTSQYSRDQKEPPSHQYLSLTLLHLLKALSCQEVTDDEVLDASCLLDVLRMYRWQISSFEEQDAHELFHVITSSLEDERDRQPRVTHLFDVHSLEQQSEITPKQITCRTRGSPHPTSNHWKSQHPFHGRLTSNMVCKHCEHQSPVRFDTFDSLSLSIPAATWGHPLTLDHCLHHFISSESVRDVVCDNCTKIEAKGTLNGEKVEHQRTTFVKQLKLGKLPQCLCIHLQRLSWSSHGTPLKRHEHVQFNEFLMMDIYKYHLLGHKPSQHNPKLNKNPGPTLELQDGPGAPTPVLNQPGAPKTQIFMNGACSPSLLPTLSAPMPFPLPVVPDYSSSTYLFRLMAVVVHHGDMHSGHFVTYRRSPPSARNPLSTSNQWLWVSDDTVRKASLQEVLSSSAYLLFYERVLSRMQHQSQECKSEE

Row | IC50 (USP30; read-out: IC50) [µM] | IC50 [1, 2] [µM] | IC50 [1, 3] [µM] | IC50 (USP30; read-out: USP30 IC50 μM (avg)) [µM] | Compound
1 | < 0.05 | 0.05 to 1 |  |  | COCCC(C)(C)NS(=O)(=O)c1ccc(NC(=O)[C@H](Cc2ccccc2)NC(=O)c2ccc(F)cc2)cc1C(F)(F)F [Compound I-65]
2 | < 0.05 | 0.05 to 1 |  |  | CCNS(=O)(=O)c1ccc(NC(=O)[C@H](Cc2ccccc2)NC(=O)c2ccc(F)cc2)cc1O [Compound I-67, (S)—N-(1-(4-(N-ethylsulfamoyl)-3-hydroxyphenylamino)-1-oxo-3-phenylpropan-2-yl)-4-fluorobenzamide]
3 | < 0.05 | 0.05 to 1 |  |  | O=C(N[C@@H](Cc1ccccc1)C(=O)Nc1ccc(S(=O)(=O)NC2COC2)c(C(F)(F)F)c1)c1ccc(F)cc1 [Compound I-68]
4 | < 0.05 | 0.05 to 1 |  |  | O=C(N[C@@H](Cc1ccccc1)C(=O)Nc1ccc(S(=O)(=O)NC23CC(C2)C3)c(C(F)(F)F)c1)c1ccc(F)cc1 [Compound I-69]
5 |  | 0.05 to 1 |  | < 0.05 | CC(C)C[C@H](NC(=O)c1ccc(F)cc1)C(=O)Nc1ccc(S(=O)(=O)N[C@@H]2CCOC2)cc1 [Compound I-71]
6 |  | 0.05 to 1 |  | 0.05 to 1 | CC(C)(CO)NS(=O)(=O)c1ccc(NC(=O)C(CC2CCNCC2)NC(=O)c2ccc(F)cc2)cc1 (centres unmarked) [Compound I-72]
7 |  | 0.05 to 1 |  | < 0.05 | COc1cc(NC(=O)[C@H](CC2CCOCC2)NC(=O)c2ccc(F)cc2)cnc1S(=O)(=O)NC1CCCC1 [Compound I-82]
8 |  | 0.05 to 1 |  | < 0.05 | COc1cc(NC(=O)[C@H](CC2CCN(C)CC2)NC(=O)c2ccc(F)cc2)ccc1S(=O)(=O)NC(C)(C)C [Compound I-84]
9 |  | 0.05 to 1 |  | 0.05 to 1 | COc1cc(NC(=O)[C@H](CC2CCOCC2)NC(=O)c2ccc(F)cc2)ccc1S(=O)(=O)NC(C)(C)CO [Compound I-85]
10 |  |  | < 0.05 | < 0.05 | COc1cc(NC(=O)[C@H](CC2CCOCC2)NC(=O)c2ccc(F)cc2)ccc1S(=O)(=O)NC1CCC1 [Compound I-86]
11 |  |  | < 0.05 | < 0.05 | COc1cc(NC(=O)[C@H](CC2CCOCC2)NC(=O)c2ccc(F)cc2)ccc1S(=O)(=O)NC1CCCC1 [Compound I-87]
12 |  | 0.05 to 1 |  | < 0.05 | O=C(N[C@@H](CC1CCOCC1)C(=O)Nc1ccc(S(=O)(=O)NC2CCC2)nc1)c1ccc(F)cc1 [Compound I-91]
13 |  | 0.05 to 1 |  | 0.05 to 1 | COc1cc(NC(=O)[C@H](CC2CCN(C)CC2)NC(=O)c2ccc(F)cc2)ccc1S(=O)(=O)NC(C)(C)CO [Compound I-93]
14 |  |  | < 0.05 | < 0.05 | O=C(N[C@@H](CC1CCOCC1)C(=O)Nc1ccc(S(=O)(=O)NC2CCCC2)nc1)c1ccc(F)cc1 [Compound I-97]
15 |  | 0.05 to 1 |  | 0.05 to 1 | CN1CCC(C[C@H](NC(=O)c2ccc(F)cc2)C(=O)Nc2ccc(S(=O)(=O)NC3COC3)cc2)CC1 [Compound I-99]
16 |  |  | < 0.05 | < 0.05 | CC(=O)N1CCC(CC(NC(=O)c2ccc(F)cc2)C(=O)Nc2ccc(S(=O)(=O)NC(C)(C)C)cc2)CC1 (centres unmarked) [Compound I-101]
17 |  | 0.05 to 1 |  | 0.05 to 1 | CN1CCC(C[C@H](NC(=O)c2ccc(F)cc2)C(=O)Nc2ccc(S(=O)(=O)N[C@@H]3CCOC3)cc2)CC1 [Compound I-103]
18 |  | 0.05 to 1 |  | 0.05 to 1 | CN1CCC(C[C@H](NC(=O)c2ccc(F)cc2)C(=O)Nc2ccc(S(=O)(=O)N[C@@H]3CCOC3)nc2)CC1 [Compound I-105]
19 |  | 0.05 to 1 |  | 0.05 to 1 | CN1CCC(C[C@H](NC(=O)c2ccc(F)cc2)C(=O)Nc2ccc(S(=O)(=O)NC(C)(C)CO)nc2)CC1 [Compound I-106]

Row | IC50 (USP30; read-out: IC50) [µM] | IC50 [1, 2] [µM] | IC50 [1, 3] [µM] | IC50 (USP30; read-out: USP30 IC50 μM (avg)) [µM] | Compound
20 |  | 0.05 to 1 |  | 0.05 to 1 | O=C(N[C@@H](CC1CCNCC1)C(=O)Nc1ccc(S(=O)(=O)N[C@@H]2CCOC2)cc1)c1ccc(F)cc1 [Compound I-107]
21 |  | 0.05 to 1 |  | < 0.05 | COc1cc(NC(=O)[C@H](CC2CCNCC2)NC(=O)c2ccc(F)cc2)ccc1S(=O)(=O)NC1COC1 [Compound I-109, (S)-4-fluoro-N-(1-((3-methoxy-4-(N-(oxetan-3-yl)sulfamoyl)phenyl)amino)-1-oxo-3-(piperidin-4-yl)propan-2-yl)benzamide]
22 |  | 0.05 to 1 |  | 0.05 to 1 | COc1cc(NC(=O)[C@H](CC2CCNCC2)NC(=O)c2ccc(F)cc2)ccc1S(=O)(=O)N[C@@H]1CCOC1 [Compound I-110]
23 |  |  | < 0.05 | < 0.05 | CC(C)(CF)NS(=O)(=O)c1ccc(NC(=O)[C@H](CC2CCOCC2)NC(=O)c2ccc(F)cc2)cc1 [Compound I-112]
24 |  |  | < 0.05 | < 0.05 | CC(C)(C)NS(=O)(=O)c1ccc(NC(=O)[C@H](CC2CCN(Cc3ccccc3)CC2)NC(=O)c2ccc(F)cc2)cc1 [Compound I-115]
25 |  |  |  | < 0.05 | CC(C)N1CCC(C[C@H](NC(=O)c2ccc(F)cc2)C(=O)Nc2ccc(S(=O)(=O)NC(C)(C)C)cc2)CC1 [Compound I-117]
26 |  |  | < 0.05 | < 0.05 | CC(C)(C)NS(=O)(=O)c1ccc(NC(=O)C(CC2CCN(CCO)CC2)NC(=O)c2ccc(F)cc2)cc1 (centres unmarked) [Compound I-121]
27 |  |  | > 10 |  | O=C(Nc1ccc(S(=O)(=O)NC2COC2)cc1)[C@@H]1C[C@H](O)CN1C(=O)c1ccc(F)cc1 [Compound I-281]
28 |  |  | > 10 |  | O=C(Nc1ccc(S(=O)(=O)N[C@@H]2CCOC2)cc1)[C@@H]1C[C@H](O)CN1C(=O)c1ccc(F)cc1 [Compound I-282]
29 |  | 0.05 to 1 |  |  | CC(C)(C)NS(=O)(=O)c1ccc(NC(=O)[C@@H]2C[C@H](c3ccccc3)CN2C(=O)c2ccc(F)cc2)cc1 [Compound I-283]
30 |  |  | > 10 |  | CC(=O)O[C@H]1C[C@@H](C(=O)Nc2ccc(S(=O)(=O)N[C@@H]3CCOC3)cc2)N(C(=O)c2ccc(F)cc2)C1 [Compound I-284]
31 |  | 1 to 10 |  |  | CC(=O)O[C@H]1C[C@@H](C(=O)Nc2ccc(S(=O)(=O)NC(C)(C)C)cc2)N(C(=O)c2ccc(F)cc2)C1 [Compound I-285]
32 |  | 1 to 10 |  |  | CC(=O)O[C@@H]1C[C@@H](C(=O)Nc2ccc(S(=O)(=O)N[C@@H]3CCOC3)cc2)N(C(=O)c2ccc(F)cc2)C1 [Compound I-286]
33 |  |  | < 0.05 |  | CC(C)N1CCC(C[C@H](NC(=O)c2ccc(F)cc2)C(=O)Nc2ccc(S(=O)(=O)NC(C)(C)C)cc2)CC1 [Compound I-287]
34 |  |  | > 10 |  | CO[C@H]1C[C@@H](C(=O)Nc2ccc(S(=O)(=O)N[C@@H]3CCOC3)cc2)N(C(=O)c2ccc(F)cc2)C1 [Compound I-288]
35 |  |  | > 10 |  | CO[C@H]1C[C@@H](C(=O)Nc2ccc(S(=O)(=O)NC3COC3)cc2)N(C(=O)c2ccc(F)cc2)C1 [Compound I-289]
36 |  | 1 to 10 |  |  | CO[C@H]1C[C@@H](C(=O)Nc2ccc(S(=O)(=O)NC(C)(C)C)cc2)N(C(=O)c2ccc(F)cc2)C1 [Compound I-290]
37 |  |  | > 10 |  | CO[C@H]1C[C@@H](C(=O)Nc2ccc(S(=O)(=O)NC(C)(C)CO)cc2)N(C(=O)c2ccc(F)cc2)C1 [Compound I-291]
38 |  | 0.05 to 1 |  |  | CC(C)(C)NS(=O)(=O)c1ccc(NC(=O)C2CC(C3CCCCC3)CN2C(=O)c2ccc(F)cc2)cc1 (centres unmarked) [Compound I-292]

Row | Compound | IC50 (USP30; read-out: IC50) [µM] | IC50 [1, 2] [µM] | IC50 [1, 3] [µM] | IC50 (USP30; read-out: USP30 IC50 μM (avg)) [µM]
39 | CC(C)(C)NS(=O)(=O)c1ccc(NC(=O)[C@H](Cc2ccccc2)NC(=O)c2ccc(F)cc2)cc1C(F)(F)F [Compound I-70, (S)—N-(1-(4-(N-tert-butylsulfamoyl)-3-(trifluoromethyl)phenylamino)-1-oxo-3-phenylpropan-2-yl)-4-fluorobenzamide] | < 0.05 |  | < 0.05 | 
